Assay results published in US9949980B2, “Drugs to prevent HPV infection” (Wisconsin Alumni Research Foundation, priority 2008, dated 2018).
Like-named read-outs stand apart in the source and are kept apart here.

How the values were obtained:
in vitro = conditions: human
Protocol: (§1) FIG. 1. High throughout screen (HTS) for identifying inhibitors of HPV infection. Shown is a schematic showing basic steps in the HTS. […] Briefly, HPV16 pseudoviruses containing the SEAP reporter genes are analyzed for their ability to infect as judged by the levels of secreted alkaline phosphatase in the tissue culture supernatant (light grey arrows). Cell viability was assessed in parallel on the same wells (dark grey arrows). In the specific HTS carried out in this study, the compounds were added at 3 uM/1% DMSO final concentration (black arrow) 4 hours prior to infection.
(§2) After incubation at 37° C. for 24 hrs, 35 μL of media was removed. […] Cells were incubated at 37° C. for 48 hrs. 2.5 μL of media was collected for SEAP assay using a PHOSPHA-LIGHT chemiluminescent alkaline phosphatase assay (Applied Biosystems). Cell viability was determined using the CellTiter Glo Luminescent Cell Viability Assay™ (Promega).

HPV16 pseudoviruses = experiment: microbe, parasite or virus in culture; assay type: cell-based; conditions: Human papillomavirus 16, HEK-293T, 48 h
Protocol: as §1, §2

[1] = read-out: Infectivity (SEAP Activity), 3 μM HTS standard concentration, 293T cells, 48 hrs
[2] = read-out: Infectivity vs. viability, 3 μM HTS standard concentration, ratio infectivity/viability

Compound	viability at 52 h, 3 μM (in vitro; Viability (CelTiter Glow))	activity at 3 µM (HPV16 pseudoviruses; [1])	activity at 3 µM (HPV16 pseudoviruses; [2])	viability at 52 h, 3 μM (in vitro)
COc1ccc(C(NC(=O)Cc2ccccc2)c2ccc3cccnc3c2O)cc1 (stereo not drawn) [Compound 5929288, N-[(8-hydroxy-7-quinolinyl)(4-methoxyphenyl)methyl]-2-phenylacetamide]	59.8%	1.44%	2.41%	–
COc1cc(NC(=O)C=Cc2ccc(OC)c(Br)c2)c(OC)cc1Cl [Compound 5944623, 3-(3-bromo-4-methoxyphenyl)-N-(4-chloro-2,5-dimethoxyphenyl)acrylamide]	98.5%	48.8%	49.5%	–
Cc1ccc2nc3nc(C)cc(C)c3c(N)c2c1 [Compound 5947488, 2,4,7-trimethylbenzo[b]-1,8-naphthyridin-5-amine]	68%	34.6%	51%	–
Cc1ccc2cc(C3CC(c4ccc(Br)cc4)=NN3C(=O)CCC(=O)O)c(=O)[nH]c2c1 (stereo not drawn) [Compound 5976736, 4-[3-(4-bromophenyl)-5-(7-methyl-2-oxo-1,2-dihydro-3-quinolinyl)-4,5-dihydro-1H-pyrazol-1-yl]-4-oxobutanoic acid]	105%	42.2%	40.2%	–
Cc1ccc(CN2CCN(S(C)(=O)=O)CC2)cc1 [Compound 5994189, 1-(4-methylbenzyl)-4-(methylsulfonyl)piperazine]	109%	39.8%	36.5%	–
Cc1nc2ccccc2c(=O)n1N=Cc1c(O)ccc2ccccc12 [Compound 6001901, 3-{[(2-hydroxy-1-naphthyl)methylene]amino}-2-methyl-4(3H)-quinazolinone]	110%	65.8%	60%	–
Cc1cc(OCC(=O)Nc2ccc(N3CCOCC3)c(Cl)c2)cc(C)c1Cl [Compound 6013775, 2-(4-chloro-3,5-dimethylphenoxy)-N-[3-chloro-4-(4-morpholinyl)phenyl]acetamide]	105%	58.8%	56%	–
Cc1cc(Cl)ccc1OCC(=O)Nc1ccc(Br)c(NC(=O)c2ccccc2)c1 [Compound 6016344, N-(2-bromo-5-{[(4-chloro-2-methylphenoxy)acetyl]amino}phenyl)benzamide]	94.6%	51.4%	54.4%	–
CCOc1ccc(C(=O)Nc2ccc3oc(-c4ccccc4F)nc3c2)cc1Cl [Compound 6021315, 3-chloro-4-ethoxy-N-[2-(2-fluorophenyl)-1,3-benzoxazol-5-yl]benzamide]	96.3%	47%	48.8%	–
Cc1ccccc1C(=O)Nc1cccc(NC(=O)c2ccc(-c3ccc(Br)cc3)o2)c1 [Compound 6021688, 5-(4-bromophenyl)-N-{3-[(2-methylbenzoyl)amino]phenyl}-2-furamide]	104%	40.2%	38.7%	–
O=[N+]([O-])c1cc(-n2ncnc2-c2ccc3c(c2)OCO3)ccc1F [Compound 6033199, 5-(1,3-benzodioxol-5-yl)-1-(4-fluoro-3-nitrophenyl)-1H-1,2,4-triazole]	106%	50.6%	47.9%	–
CC(c1ccccc1)c1nnc(NC(=O)Nc2ccc(Cl)cc2)s1 (stereo not drawn) [Compound 6040256, N-(4-chlorophenyl)-N′-[5-(1-phenylethyl)-1,3,4-thiadiazol-2-yl]urea]	97.5%	29.6%	30.4%	–
O=C(Nc1ccccc1C(=O)N[C@@H](Cc1ccccc1)C(=O)O)c1ccccc1 [Compound 6058136, N-[2-(benzoylamino)benzoyl]phenylalanine]	109%	64.7%	59.1%	–
CCCCNC(=O)c1cc2nc(-c3ccc(OCC)cc3)cc(C)n2n1 [Compound 6070486, N-butyl-5-(4-ethoxyphenyl)-7-methylpyrazolo[1,5-a]pyrimidine-2-carboxamide]	113%	54.6%	48.3%	–
Cc1ccc(OCc2nnc(NC(=O)Nc3ccc(Cl)c(Cl)c3)s2)cc1 [Compound 6070527, N-(3,4-dichlorophenyl)-N′-{5-[(4-methylphenoxy)methyl]-1,3,4-thiadiazol-2-yl}urea]	105%	41.8%	39.8%	–
O=C(Nc1ccccc1)Nc1nnc(COc2ccc(Cl)cc2)s1 [Compound 6072068, N-{5-[(4-chlorophenoxy)methyl]-1,3,4-thiadiazol-2-yl}-N′-phenylurea]	112%	54.5%	48.8%	–

Compound	viability at 52 h, 3 μM (in vitro; Viability (CelTiter Glow))	activity at 3 µM (HPV16 pseudoviruses; [1])	activity at 3 µM (HPV16 pseudoviruses; [2])	viability at 52 h, 3 μM (in vitro)
Cc1ccc(-c2cc(N)n(Cc3ccc(Cl)cc3)n2)cc1 [Compound 6077076, 1-(4-chlorobenzyl)-3-(4-methylphenyl)-1H-pyrazol-5-amine]	74.4%	20.9%	28.1%	–
COc1ccccc1CC(N)=NOC(=O)COc1ccc(C)cc1 [Compound 6084167, 2-(2-methoxyphenyl)-N′-{[(4-methylphenoxy)acetyl]oxy}ethanimidamide]	114%	53.8%	47.2%	–
O=c1oc2c3c4c(cc2cc1CCO)CCCN4CCC3 [Compound 6105180, 10-(2-hydroxyethyl)-2,3,6,7-tetrahydro-1H,5H,11H-pyrano[2,3-f]pyrido[3,2,1-ij]quinolin-11-one]	115%	56.9%	49.5%	–
CN(C)c1cccc(C(=O)NCc2ccc(S(N)(=O)=O)cc2)c1 [Compound 6106063, N-[4-(aminosulfonyl)benzyl]-3-(dimethylamino)benzamide]	105%	45.6%	43.4%	–
Cc1c(NS(=O)(=O)c2cc(Cl)ccc2Cl)cccc1[N+](=O)[O-] [Compound 6107659, 2,5-dichloro-N-(2-methyl-3-nitrophenyl)benzenesulfonamide]	67.8%	22.3%	32.9%	–
CCOc1cccc(C(=O)Nc2ccc(NC(=O)c3ccco3)c(OC)c2)c1 [Compound 6113089, N-{4-[(3-ethoxybenzoyl)amino]-2-methoxyphenyl}-2-furamide]	103%	54.6%	52.9%	–
COc1cc(NC(=O)COc2ccccc2C)ccc1NC(=O)c1ccco1 [Compound 6113090, N-(2-methoxy-4-{[(2-methylphenoxy)acetyl]amino}phenyl)-2-furamide]	106%	55%	51.9%	–
COc1ccc(S(=O)(=O)Nc2cc(Cl)ccc2C)cc1 [Compound 6118535, N-(5-chloro-2-methylphenyl)-4-methoxybenzenesulfonamide]	73.9%	39%	52.8%	–
Cc1cccc(C(=O)Nc2cccc(NC(=O)COc3ccccc3Cl)c2)c1 [Compound 6126189, N-(3-{[(2-chlorophenoxy)acetyl]amino}phenyl)-3-methylbenzamide]	99.1%	49.8%	50.2%	–
Cc1ccc(N2C(=O)C(Cl)=C(Nc3ccc(C)c(C)c3)C2=O)c(C)c1 [Compound 6137315, 3-chloro-1-(2,4-dimethylphenyl)-4-[(3,4-dimethylphenyl)amino]-1H-pyrrole-2,5-dione]	93.7%	55.9%	59.7%	–
O=C1NC(=S)SC1=Cc1cc(Cl)c(OCc2ccccc2)c(Cl)c1 [Compound 6142367, 5-[4-(benzyloxy)-3,5-dichlorobenzylidene]-2-thioxo-1,3-thiazolidin-4-one]	106%	61.2%	57.9%	–
COc1ccc(CCNc2cc(N3CCN(C(=O)c4ccc(Cl)cc4)CC3)ccc2[N+](=O)[O-])cc1OC [Compound 6144357, 5-[4-(4-chlorobenzoyl)-1-piperazinyl]-N-[2-(3,4-dimethoxyphenyl)ethyl]-2-nitroaniline]	84.6%	39.5%	46.6%	–
Cc1nc2cc(-c3cccc(F)c3)nn2c(O)c1C [Compound 6156840, 2-(3-fluorophenyl)-5,6-dimethylpyrazolo[1,5-a]pyrimidin-7-ol]	107%	63.5%	59.2%	–
Cc1cc(C=C2C(=O)NC(=S)N(c3ccccc3F)C2=O)c(C)n1C [Compound 6166672, 1-(2-fluorophenyl)-2-thioxo-5-[(1,2,5-trimethyl-1H-pyrrol-3-yl)methylene]dihydro-4,6(1H,5H)-pyrimidinedione]	–	53.5%	49.2%	109%
COc1ccc(OC)c(NC(=O)CN(c2cc(OC)ccc2OC)S(C)(=O)=O)c1 [Compound 6167601, N~1~,N~2~-bis(2,5-dimethoxyphenyl)-N~2~-(methylsulfonyl)glycinamide]	109%	59.1%	54.4%	–
CC(=O)Nc1ccccc1NC(=O)c1ccccc1I [Compound 6168016, N-[2-(acetylamino)phenyl]-2-iodobenzamide]	106%	57%	53.7%	–
